Test results: patent US6600063B1, “Derivatives of phenyl 4-aminosalicylate and method of making the same” (priority 2000, dated 2003)
In brackets after ≈: the same amount, converted by molar mass.

Assays:
Assay in all cases: microbe, parasite or virus in culture
Assay type in all cases: cell-based
[1] = test system: M. tuberculosis strain resistant to isoniazid (ATCC 35822); settings: Mycobacterium tuberculosis, ATCC35822, read-out: MIC INH-R (ug/ml)
[2] = test system: M. tuberculosis EMB-R strain; settings: Mycobacterium tuberculosis, read-out: MIC EMB-R (ug/ml)
[3] = test system: M. tuberculosis strain resistant to rifampin (ATCC 35838); settings: Mycobacterium tuberculosis, ATCC35838, read-out: MIC RMP-R (ug/ml)
[4] = test system: M. tuberculosis ETA-R strain; settings: Mycobacterium tuberculosis, read-out: MIC ETA-R (ug/ml)

`O=C(Oc1ccccc1)c1ccc(NC(=S)Nc2ccccc2)cc1O` [SAMPLE ID 131326] was tested, and the MIC [1] was at most 0.1 µg/mL, the MIC [2] was 0.2 µg/mL (≈ 0.549 µM) and the MIC [3] was 0.2 µg/mL (≈ 0.549 µM). For the same molecule, the MIC [4] was 0.2 µg/mL (≈ 0.549 µM).
